According to article PMC7961618, “Inhibitor Development against p7 Channel in Hepatitis C Virus” (Molecules, 2021):
Like-named read-outs stand apart in the source and are kept apart here.

Tests used:
p7 (5a) protein = p7 (5a) protein (Hepatitis C virus genotype 5a (Hepacivirus hominis), UniProt O39928, A759S/C749A/C774T/C791S/T748G); assay: NMR titration (2D 1H-15N TROSY-HSQC chemical shift perturbation) for Kd; format: binding; details: for Kd: read-out: Kd GT5a
HCV = tested on: HCV; set-up: method as in PMID 18828153; details: cited from earlier work
[1] = CellTiter-Glo cell viability and cytotoxicity assay; details: human, Huh7.5.1 cells
Procedure: (§1) (B) After incubation with each compound, the cell viability and cytotoxicity were detected by CellTiter-Glo® Luminescent Cell Viability Assay reagent (Promega GS7570, Madison, WI, USA). […] Data were presented as the percentage of mock treatment control. […] Two independent experiments were repeated showing similar results.
(§2) Cell viability and cytotoxicity were detected by CellTiter-Glo® Luminescent Cell Viability Assay reagent (Promega GS7570, Madison, WI, USA). Briefly, Huh7.5.1 cells were seeded at a density of 80,000 cells per well in 24-well microplates and allowed to attach and grow overnight. The next day, the cell-culture media with serially diluted compounds in 0.5% DMSO or mock were added to the cells. After 12 h of incubation, cells were collected and lysed for the cell cytotoxicity assay.

hepatoma cell lines = tested on: hepatoma cell lines; set-up: method as in PMID 18828153; details: cited from earlier work
[2] = tested on: HCV (JFH1 strain with adaptive mutations); format: cell-based; details: for viral production kinetics versus mock control: 20 μM, supernatant at 2, 6, 12 and 24 h post-incubation; for IC50 against HCV compared with Rim: Huh7.5.1 cells, JFH1, 12 h
Huh7.5.1 cells = assay: CellTiter-Glo cell viability and cytotoxicity assay; details: 12 h incubation
Procedure: as §1, §2

HCV genotype 3 = tested on: HCV genotype 3; set-up: method as in PMID 27783808; details: cited from earlier work
[3] = apparent Kd from chemical shift changes of Val7 or Leu8, 0.1 mM 15N-p7 (5a) in 20 mM DPC, 30 °C

Chain of p7 (5a) protein (O39928 748-810 T748G/C749A/A759S/C774T/C791S): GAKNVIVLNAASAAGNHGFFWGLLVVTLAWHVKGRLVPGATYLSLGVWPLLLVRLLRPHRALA

| Structure (SMILES) | Kd (p7 (5a) protein; [3]) [µM] | other results |
| --- | --- | --- |
| CNC(C(N)=O)C12CC3CC(CC(C3)C1)C2 (stereo not shown) [ARD8] | 707 |  |
| Oc1ccc(CNC23CC4CC(CC(C4)C2)C3)c(O)c1 [ARD89] | 112 |  |
| NC(CNC(=O)CCOCCOCCOCCOCCOCCOCCC(=O)NCC(N)C12CC3CC(CC(C3)C1)C2)C12CC3CC(CC(C3)C1)C2 (stereo not shown) [ARD83] | 70 |  |
| CNC(=O)C(NC)C12CC3CC(CC(C3)C1)C2 (stereo not shown) [ARD9] | 418 |  |
| CCC(NC)C12CC3CC(CC(C3)C1)C2 (stereo not shown) [ARD2] | 334 |  |
| CNC(CO)C12CC3CC(CC(C3)C1)C2 (stereo not shown) [ARD6] | 344 |  |
| NC(CNC(=O)CCOCCOCCOCCOCCC(=O)NCC(N)C12CC3CC(CC(C3)C1)C2)C12CC3CC(CC(C3)C1)C2 (stereo not shown) [ARD81] | 81 |  |
| OCC1(CNCc2cc(-c3ccccc3)on2)C2CC3CC(C2)CC1C3 (stereo not shown) [ARD98] | 102 |  |
| CC(N)C12CC3CC(CC(C3)C1)C2 (stereo not shown) [Rimantadine, reference compound] |  | anti-HCV activity (HCV): moderate anti-HCV activity; CC50 at 12 h [1]: > 100 µM; cytotoxicity against hepatoma cell lines (hepatoma cell lines): no significant cytotoxicity; viral production kinetics versus mock control [2]: suppress the viral production; Kd (p7 (5a) protein): 98 µM |
| NC(CNC(=O)CCOCCC(=O)NCC(N)C12CC3CC(CC(C3)C1)C2)C12CC3CC(CC(C3)C1)C2 (stereo not shown) [ARD87] |  | cytotoxicity compared with Rim (Huh7.5.1 cells): significantly higher than Rim; viral production kinetics versus mock control [2]: suppress the viral production; IC50 against HCV compared with Rim [2]: about two-fold lower than that of Rim; Kd (p7 (5a) protein): 43 µM |
| OCC1(CNCc2cc(C3CC3)on2)C2CC3CC(C2)CC1C3 (stereo not shown) [ARD101] | 105 |  |
| NC(C(F)F)C12CC3CC(CC(C3)C1)C2 (stereo not shown) [ARD71] | 2460 |  |
| CC1(NCc2nnc(-c3cc(O)cc(O)c3)[nH]2)C2CC3CC(C2)CC1C3 (stereo not shown) [ARD112] | 5 | cytotoxicity compared with Rim (Huh7.5.1 cells): comparable to Rim; CC50 at 12 h [1]: > 100 µM; viral production kinetics versus mock control [2]: suppress the viral production; IC50 against HCV compared with Rim [2]: about two-fold lower than that of Rim; binding strength relative to the best dimeric compound ARD87 (p7 (5a) protein; from NMR Kd values, p7 (5a)): ~ 10 fold |
| Cc1ccc(CNCC2(CO)C3CC4CC(C3)CC2C4)cn1 (stereo not shown) [ARD100] | 107 |  |
| NC(CNC(=O)CCOCCOCCOCCOCCOCCOCCOCCC(=O)NCC(N)C12CC3CC(CC(C3)C1)C2)C12CC3CC(CC(C3)C1)C2 (stereo not shown) [ARD84] | 58 |  |
| Cc1cc(CNCC2(CO)C3CC4CC(C3)CC2C4)ccn1 (stereo not shown) [ARD99] | 852 |  |
| NC(CNC(=O)CCOCCOCCOCCC(=O)NCC(N)C12CC3CC(CC(C3)C1)C2)C12CC3CC(CC(C3)C1)C2 (stereo not shown) [ARD80] | 102 |  |
| NC12CC3CC(CC(C3)C1)C2 [Amantadine] |  | inhibition of genotype 3 (HCV genotype 3): could not inhibit genotype 3 |
| CCNC(C)C12CC3CC(CC(C3)C1)C2 (stereo not shown) [ARD1] | 487 |  |
